Measured values published in patent publication US20160310454A1, “LIVER X RECEPTOR AGONISTS IN THE TREATMENT OF EMPHYSEMA” (priority 2013, published 2016).
Entries after “also recorded” stand apart in the source; their conditions may differ.

Experiments:
[1] = target: T1, farnesoid X receptor (FXR (NR4H4)) (Homo sapiens, UniProt Q96RI1); details: cited from earlier work
T1 sequence (Q96RI1 1-486): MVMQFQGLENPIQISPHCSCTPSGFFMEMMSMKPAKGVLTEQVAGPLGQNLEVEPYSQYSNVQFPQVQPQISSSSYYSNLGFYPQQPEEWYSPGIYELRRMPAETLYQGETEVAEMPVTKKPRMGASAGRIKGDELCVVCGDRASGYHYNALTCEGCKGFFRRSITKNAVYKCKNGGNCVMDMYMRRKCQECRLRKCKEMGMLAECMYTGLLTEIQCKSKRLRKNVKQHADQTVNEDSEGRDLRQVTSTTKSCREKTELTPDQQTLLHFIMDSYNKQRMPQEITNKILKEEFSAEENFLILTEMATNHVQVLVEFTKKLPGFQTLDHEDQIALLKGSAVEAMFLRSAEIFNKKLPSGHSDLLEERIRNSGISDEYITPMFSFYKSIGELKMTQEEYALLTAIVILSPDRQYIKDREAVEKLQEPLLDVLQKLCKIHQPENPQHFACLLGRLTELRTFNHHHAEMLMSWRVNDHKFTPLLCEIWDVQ

[2] = tested on: AKR/J mice exposed to cigarette smoke for 5 months; assay: Chronic 5 months cigarette smoke exposure model, LXR agonist in diet; assay type: in vivo, mouse; details: for cigarette smoke induced protein levels of TNFα in the BAL / level of ABCA1 in BAL and lung tissue / total inflammatory cell counts in BAL: diet 0.015% w/w (30 mg/kg)
Method: Mice were chronically exposed to smoke in a specially designed chamber (Teague Enterprise, CA). 8 weeks old mice were smoke-exposed for 5 hours a day, 5 days a week for 10 days and 5 months. The total particulate matter (TPM) within the smoking chamber was regulated so that the mice receive a TPM of 100 mg/m^3. TPM was determined by a gravimetric analysis of filter samples taken during the exposure period. Mice (C57BL/6, AKR/J strain) were smoke exposed for 10 days and 5 months and compared to room air exposed controls.
Eight week-old AKR/J mice were utilized in the study and exposed to three different conditions: room air (n=8), cigarette smoke (n=8), cigarette smoke with additional treatment with LXR agonist (n=8). The LXR agonist was delivered in the diet and the concentration calculated based on the average mouse weight (30 g) and food consumption (6 g/day). Experimental food was prepared with a 0.015% LXR agonist (T0901317-Cayman Chemicals) in food (w/w) concentration corresponding to 30 mg/kg body weight. Both the control group and the custom drug diet were prepared by Research diets, Inc., New Brunswick, N.J. (Control diet (C11000)—Purina Rodent Chow 5001, Custom Diet (C13861)—Purina Rodent Chow 5001 with 0.015% LXR agonist (T0901317-Cayman Chemicals).
To determine the pulmonary compliance of the lung, a closed chest model was utilized (Foronjy et al., 2005). Respiratory mechanics were measured using a flexiVent (SCIREQ) system (Foronjy et al., 2005). Pentobarbital was used for sedation and succinylcholine for paralysis. The mice then underwent neck dissection and tracheostomy followed by a full assessment of pulmonary mechanics in triplicate utilizing the flexiVent system (Foronjy et al., 2005). After the airway measurements were performed the animals were sacrificed by CO2 inhalation and further utilized for tissue, BAL and lung analysis.
The BAL fluid was collected by perfusing the lungs with 2 ml of phosphate buffered saline (PBS). The samples were then centrifuged to pellet down the cells and re-suspended in 300 μl of PBS. To obtain the total cell count, cells were counted using a hematocytometer for which, 10 μl of the sample was utilized. To obtain the differential cell count, the slides were prepared using a cytopsin. 150 μl of sample was taken to prepare slides. These slides were stained using Hematoxylin and Eosin (H&E) and a number of regular and foamy like macrophages and lymphocytes counted under the microscope. A foamy like phenotype (Hirama et al., 2007) was identified by examining the sequential increase in macrophage size. Lipid staining was not performed.
Histological evaluation of the inflammation was performed on the left lungs which were fixed using 10% formalin. Fixed tissue was stained with H&E and Trichrome and mean linear intercept (MLI) determined as described previously (Foronjy et al., 2008; Foronjy et al., 2005; Foronjy et al., 2001; Foronjy et al., 2010; Foronjy et al., 2008a; Foronjy et al., 2006; Foronjy et al., 2003; Geraghty et al., 2013).
Total RNA was extracted from specimens of lung tissue 0.3 cm^3 in size with the use of the RNeasy kit (Qiagen, Germantown, Md.) (Goldklang et al., 2012). The RNA was then further processed to obtain cDNA, which was used for Real Time (RT) PCR analysis. TaqMan gene expression assays (Applied Biosystems, Carlsbad, Calif.) were performed to assess gene-transcript levels with the use of an ABI Prism 7900HT Sequence Detection System (Applera, Foster City, Calif.) (Goldklang et al., 2012). The following primers were used to check the respective gene expression: ABCA1 (Hs01059118_m1), ABCG1 (Hs00245154_m1), MMP-9 (Mm00442991_m1), IL-1β (Mm00434227_g1), TNF-α (Mm00443260_g1) and GAPDH (4352932E) from TaqMan Gene Expression Assays, Applied Biosystems, CA. β-actin was used as a control since it is a housekeeping gene.

[3] = 5 months smoke, mass spectrometry
[4] = 5 months smoke, listed as LXR agonist
[5] = diet 0.015% w/w, 5 months smoke

O=S(=O)(c1ccccc1)N(CC(F)(F)F)c1ccc(C(O)(C(F)(F)F)C(F)(F)F)cc1 [T0901317, N-(2,2,2-trifluoroethyl)-N-[4-[2,2,2-trifluoro-1-hydroxy-1-(trifluoromethyl)ethyl]phenyl]-benzenesulfonamide]
activation of FXR compared with chenodeoxycholic acid [1]: more potently than a natural bile acid FXR ligand, chenodeoxycholic acid | potency as activator of LXR versus FXR [1]: much more potent activator of LXR than FXR | collagen airway and vessels deposition ([2]; 5 months smoke, Masson Trichrome staining): decrease | cigarette smoke induced increase in C14 and C16 ceramides in BAL [2, 3]: reduced | total level of ceramides in the BAL [2, 3]: reduced | smoke induced increase in IFNγ and MCP-1 in the lung ([2]; diet 0.015% w/w): inhibited | cigarette smoke induced protein levels of TNFα in the BAL ([2]; 5 months smoke): decreased | level of ABCA1 in BAL and lung tissue ([2]; 5 months smoke): induced | total inflammatory cell counts in BAL ([2]; 5 months smoke): decrease | cigarette smoke induced protein levels of TNFα in the BAL [2, 4]: abrogated | level of ABCA1 in BAL and lung tissue [2, 4]: successfully increased; also recorded: restored | total inflammatory cell counts in BAL [2, 4]: significantly decreased | lung structure / emphysema development by mean linear intercept [2, 5]: preserved the lung structure and blocked emphysema development | mRNA expression of MMP-9 and TNFα in the lungs [2, 5]: No significant changes | mRNA levels of MMP-9 in the BAL cells [2, 5]: not significantly altered | alveolar macrophage population exhibiting a foam cell-like phenotype ([2]; diet 0.015% w/w, 5 months smoke, differential BAL cell counts): significantly reduced | lung elastance ([2]; diet 0.015% w/w, 5 months smoke, flexiVent): increase | lung compliance ([2]; diet 0.015% w/w, 5 months smoke, flexiVent, vs untreated smoke exposed mice): decrease | smoke induced MMP-9 activity in the BAL ([2]; diet 0.015% w/w, gelatin zymography): attenuated
